This is an account of results in US20240382561A1, “GLUCOREGULATORY COMPOUND, COMPOSITION AND USES THEREOF” (THE HONG KONG POLYTECHNIC UNIVERSITY, priority 2021, published 2024).

Experiment [1] has as its system 3T3-L1 adipocytes. Description: 2-NBDG glucose uptake in 3T3-L1 adipocytes. The experiment is classed as cell-based. To be noted: inhibitor 1 μM; for effect of co-treatment on CYSTM1-induced glucose uptake: 3T3-L1 cells, CYSTM1 1 μM. The protocol: (§1) To determine whether CYSTM1 can increase glucose uptake in adipocytes, in vitro assays of 2-NBDG uptake in response to CYSTM1 treatment and potential inhibitors in 3T3-L1 adipocytes and mouse primary adipocytes were performed. 3T3-L1 preadipocytes were maintained in Dulbecco's modified Eagle's medium (DMEM) supplemented with 10% fetal bovine serum. Two days after confluence, 3T3-L1 cells were induced to differentiation using the standard adipogenic cocktail (0.5 mM IBMX, 1 μM dexamethasone and 10 μg/ml insulin) that was applied for 4 days and followed by 10 μg/ml insulin treatment for additional 4 days. The culture medium was changed every other day. The differentiated cells were maintained in normal serum containing DMEM. Mouse primary adipocytes were isolated from 10 to 12-week-old male C57BL/6J mice using a collagenase digestion protocol as described, briefly, white fat pads were removed, minced and digested using collagenase for 60-90 min at 37° C. in Krebs-Ringers phosphate HEPES buffer (KRPH) (15 mM HEPES, pH 7.4, 118 mM NaCl, 4.8 mM KCl, 1.2 mM MgSO4, 1.3 mM CaCl2, 1.2 mM KHPO3, 0.1% BSA). The stromal vascular fraction was separated from the adipocytes and cultured using DMEM and differentiated the same as 3T3-L1 adipocytes as described above. For glucose uptake, differentiated 3T3-L1 adipocytes and primary adipocytes are plated at 10,000 cells/well in 96-well plates and fasted overnight with low glucose serum-free medium (DMEM with 0.25% BSA) DMEM and 2-NBDG (Cayman Chemical) was performed as follow: briefly, 3T3-L1 cells were washed twice with warm (37° C.) KRPH buffer, and adipocytes were either untreated or treated with different concentration of CYSTM1 (1 nM, 10 nM, 100 nM and 1000 nM) for 1 h in KRPH buffer containing 400 nM of 2-NBDG. NBDG uptake was measured using a fluorescent microplate reader (Thermo Scientific Varioskan LUX Multimode Microplate Reader).

Experiment [2] deals with mouse primary adipocytes. Description: 2-NBDG glucose uptake in mouse primary adipocytes. It is filed as cell-based. The note with it: inhibitor 1 μM; for effect of co-treatment on CYSTM1-induced glucose uptake: primary adipocytes, CYSTM1 1 μM. As for the experimental part:
as §1

The test system of experiment [3] is MIN6 pancreatic beta cell. Description: Insulin secretion in MIN6 cells with GLP-1R antagonist exendin (9-39). It is filed as cell-based, mouse. The note with it: exendin (9-39) 10 nM.

Regarding `CCn1c(-c2nonc2N)nc2c(C#CC(C)(C)O)ncc(OC[C@H]3CCCNC3)c21` [GSK690693], the “inhibition of CYSTM1-induced increase in glucose uptake” value in experiment [1] (3T3-L1 adipocytes, 5 μM, 10 μM, CYSTM1 1 μM (FIG. 8B)) was “inhibited by the dose-dependent manner”; in experiment [2] (mouse primary adipocytes, 5 μM, 10 μM, CYSTM1 1 μM (FIG. 8D)), “inhibited by the dose-dependent manner”. The “effect of co-treatment on CYSTM1-induced glucose uptake” value in experiment [1] and in experiment [2] was “blocked” each time.
With glucagon-like peptide 1 [GLP-1], the “glucose-induced insulin secretion of GLP-1 in presence of exendin (9-39)” value in experiment [3] (GLP-1 10 nM) was “inhibited by exendin (9-39)”.
Regarding `Cc1cccc([C@@H](CO)NC(=O)[C@@H](C)N2Cc3ccc(-c4nc(NC5CCOCC5)ncc4Cl)cc3C2=O)c1` [ERK1/2 inhibitor 1], the “effect of co-treatment on CYSTM1-induced glucose uptake” value in experiment [1] and in experiment [2] was “blocked” each time.
On to exendin (9-39), for which, in experiment [3] (CYSTM1 10 nM), the “inhibition of CYSTM1 activity (insulin secretion) by the antagonist” value is “did not inhibit CYSTM1 activity”. For the same compound, the “inhibition of glucose-induced insulin secretion of GLP-1 by the antagonist” value in experiment [3] (GLP-1 10 nM) is listed as “inhibited”.
